Data on 19 compounds can be found in PMC9671780 (Bioorganic Chemistry, 2022).

Molecules are shown by their SMILES. In brackets after ≈: the same amount, converted by molar mass.

One data set addresses SARS-CoV-2 M^pro (Severe acute respiratory syndrome coronavirus 2, UniProt P0DTD1). Description: biochemical. Particulars: for IC50: IC50 against SARS-CoV-2 M^pro, Table 1 and text.
The subject of another data set is SARS-CoV-2. In kind it is cell-based. Particulars: for Antiviral Potency Index (API): ratio of % inhibition to that of remdesivir at 10 µM; for SARS-CoV-2 Antiviral Assay (%) inhibition of viral replication: 10 µM.
A short description of another data set: in vitro. Particulars: African green monkey, Vero E6 Cytotoxicity (IC50), MTT.
The subject of a further data set is Vero E6 cells. The conditions noted are these: for IC50: read-out: Vero E6 Cytotoxicity (IC50), MTT.
The test system of a further data set is TNF-α. In words: Carrageenan-induced paw edema in rats: serum TNF-α. In kind it is in vivo, Sprague Dawley Rat. The conditions noted are these: male rats, 100 mg/kg, 6 h after carrageenan. (In general: The carrageenan paw model is a standard test of acute inflammation.)
For the next data set, the system named is IL-6. Description: Carrageenan-induced paw edema in rats: serum IL-6. Particulars: male rats, 100 mg/kg, 6 h after carrageenan. It is filed as in vivo, Sprague Dawley Rat.
A further data set in a line: PBS solubility screening. In kind it is physicochemical. Particulars: for Solubility note: PBS; for solubility: phosphate-buffered saline, aqueous buffer, kinetic from dmso stock.
The nature of data set [1]: Enzymatic metabolic stability. It is filed as in vitro ADME.

Usually IC50 stands for the point on the concentration scale where inhibition reaches its midpoint. For the compound `Cc1nn(-c2ccc(Cl)cc2)c2c1C(c1ccc(Cl)cc1)C(C#N)=C(N)O2` (stereo not drawn) [Compound 18, 6-Amino-1-(4-chlorophenyl)-4-(4-chlorophenyl)-3-methyl-1,4-dihydropyrano[2,3-c]pyrazole-5-carbonitrile], the values for the IC50 at SARS-CoV-2 M^pro and in the data set “in vitro” were 12.8 ± 0.6 µM and 60.5 ± 4.6 µM, respectively. For the same compound, the “Antiviral Potency Index (API)” value in the data set on SARS-CoV-2 stood at 0.74.
As for `Cc1nn(-c2ccc(Cl)cc2)c2c1C(c1ccc(Br)cc1)C(C#N)=C(N)O2` (stereo not drawn) [Compound 19, 6-Amino-4-(4-bromophenyl)-1-(4-chlorophenyl)-3-methyl-1,4-dihydropyrano[2,3-c]pyrazole-5-carbonitrile], the figures for the IC50 against SARS-CoV-2 M^pro and in “in vitro” were 30.9 ± 1.6 µM and 26.2 ± 20 µM, respectively. Moreover, the “Antiviral Potency Index (API)” value in the data set with SARS-CoV-2 was found to be 0.45.
Take `Cc1nn(-c2ccc(Cl)cc2)c2c1C(c1ccc(I)cc1)C(C#N)=C(N)O2` (stereo not drawn) [Compound 20, 6-Amino-1-(4-chlorophenyl)-4-(4-iodophenyl)-3-methyl-1,4-dihydropyrano[2,3-c]pyrazole-5-carbonitrile]: the IC50 against SARS-CoV-2 M^pro came out at 69.1 ± 3.5 µM; in the data set “in vitro” it was 103 ± 7.8 µM. Also, the “Antiviral Potency Index (API)” value with SARS-CoV-2 is on record as 0.62.
In the same order, the values of `COc1ccc(C2C(C#N)=C(N)Oc3c2c(C)nn3-c2ccc(Cl)cc2)cc1` (stereo not drawn) [Compound 21, 6-Amino-1-(4-chlorophenyl)-4-(4-methoxyphenyl)-3-methyl-1,4-dihydropyrano[2,3-c]pyrazole-5-carbonitrile] are 24.6 ± 1.2 µM, 78.1 ± 5.9 µM and 0.49.
With `Cc1nn(-c2ccc(Cl)cc2)c2c1C(c1ccc(O)cc1)C(C#N)=C(N)O2` (stereo not drawn) [Compound 22, 6-Amino-1-(4-chlorophenyl)-4-(4-hydroxyphenyl)-3-methyl-1,4-dihydropyrano[2,3-c]pyrazole-5-carbonitrile], the “Mode of binding from kinetic analysis” value at SARS-CoV-2 M^pro is “reversibly and non-competitively with non-covalent interactions”. Further, the IC50 in the data set on Vero E6 cells is 67.7 ± 5.2 µM; in “in vitro” it was more than 60 µM.
As for `Cc1nn(-c2ccc(Cl)cc2)c2c1C(c1ccc([N+](=O)[O-])cc1)C(C#N)=C(N)O2` (stereo not drawn) [Compound 23, 6-Amino-1-(4-chlorophenyl)-4-(4-nitrophenyl)-3-methyl-1,4-dihydropyrano[2,3-c]pyrazole-5-carbonitrile], the IC50 amounted to 9.5 ± 0.51 µM against SARS-CoV-2 M^pro and 113 ± 8.6 µM in the data set “in vitro”. In the data set with SARS-CoV-2, the “Antiviral Potency Index (API)” value is 0.64.
Turning to `Cc1nn(-c2ccc(Cl)cc2)c2c1C(c1ccc(-c3ccccc3)cc1)C(C#N)=C(N)O2` (stereo not drawn) [Compound 24, 4-([1,1′-Biphenyl]-4-yl)-6-amino-1-(4-chlorophenyl)-3-methyl-1,4-dihydropyrano[2,3-c]pyrazole-5-carbonitrile], the IC50 on SARS-CoV-2 M^pro worked out at 39.8 ± 2.2 µM; in “in vitro”, 60.7 ± 4.6 µM. The “Antiviral Potency Index (API)” value in the data set with SARS-CoV-2 is on record as 0.54.
In the same order, the values of `Cc1nn(-c2ccc(Cl)cc2)c2c1C(c1ccc(F)cc1F)C(C#N)=C(N)O2` (stereo not drawn) [Compound 25, 6-Amino-1-(4-chlorophenyl)-4-(2,4-difluorophenyl)-3-methyl-1,4-dihydropyrano[2,3-c]pyrazole-5-carbonitrile] are 192 ± 9.8 µM, 47.6 ± 3.6 µM and 0.52.
On to `Cc1nn(-c2ccc(Cl)cc2)c2c1C(c1cccc(Cl)c1Cl)C(C#N)=C(N)O2` (stereo not drawn) [Compound 26, 6-Amino-1-(4-chlorophenyl)-4-(2,3-dichlorophenyl)-3-methyl-1,4-dihydropyrano[2,3-c]pyrazole-5-carbonitrile], for which the IC50 in the data set “in vitro” was found to be 34.8 ± 2.7 µM.
By solubility is commonly meant the concentration that dissolves in the medium under given conditions. The low end stands for little dissolved substance, the high end for much dissolved substance. The term microsomal CLint denotes a measure of how fast metabolising enzymes remove a compound, apart from limits set by blood flow. A high value points to faster metabolism. As a reminder, the half-life is how long it takes for the measured level to halve. For `Cc1nn(-c2ccc(Cl)cc2)c2c1C(c1ccc(Cl)cc1Cl)C(C#N)=C(N)O2` (stereo not drawn) [Compound 27, 6-Amino-1-(4-chlorophenyl)-4-(2,4-dichlorophenyl)-3-methyl-1,4-dihydropyrano[2,3-c]pyrazole-5-carbonitrile], the “Mode of binding from kinetic analysis” value at SARS-CoV-2 M^pro is “reversibly and non-competitively with non-covalent interactions”. In the data set with SARS-CoV-2, the “SARS-CoV-2 Antiviral Assay (%) inhibition of viral replication” value was 91.23 ± 0.25% and the “Antiviral Potency Index (API)” value was 0.98. The “Serum level of TNF-α” value with TNF-α turned out to be 385 pg/mL. Moreover, in the data set with IL-6, the “Serum level of IL-6” value was 64 pg/mL. Further, in the data set “PBS solubility screening”, the Solubility note entry is reported as “Moderate aqueous solubility” and the solubility was determined as 22.4 µM (≈ 9.67 µg/mL). Further, in data set [1], the Metabolic rate result was “intermediate clearance rate” and the microsomal CLint worked out at 54.6 µL/min/mg. Also, in data set [1] (Intrinsic half-life (t1/2)), the half-life is more than 2 h. Further, the half-life in data set [1] (Mean t1/2) stood at 2.23 h. Also, in the data set with Vero E6 cells, the IC50 was 62 ± 4.7 µM. This compound also had an IC50 in “in vitro” of more than 60 µM.
`Cc1nn(-c2ccc(Cl)cc2)c2c1C(c1cc(Cl)ccc1Cl)C(C#N)=C(N)O2` (stereo not drawn) [Compound 28, 6-Amino-1-(4-chlorophenyl)-4-(2,5-dichlorophenyl)-3-methyl-1,4-dihydropyrano[2,3-c]pyrazole-5-carbonitrile] came in with an IC50 in “in vitro” of 131 ± 10 µM.
As to `Cc1nn(-c2ccc(Cl)cc2)c2c1C(c1c(Cl)cccc1Cl)C(C#N)=C(N)O2` (stereo not drawn) [Compound 29, 6-Amino-1-(4-chlorophenyl)-4-(2,6-dichlorophenyl)-3-methyl-1,4-dihydropyrano[2,3-c]pyrazole-5-carbonitrile], the IC50 against SARS-CoV-2 M^pro amounted to 44.6 µM; in the data set “in vitro” it was 63.3 ± 4.8 µM. For the same compound, in the data set with SARS-CoV-2, the “Antiviral Potency Index (API)” value stood at 0.50.
Consider `Cc1nn(-c2ccc(Cl)cc2)c2c1C(c1ccc(Cl)c(Cl)c1)C(C#N)=C(N)O2` (stereo not drawn) [Compound 30, 6-Amino-1-(4-chlorophenyl)-4-(3,4-dichlorophenyl)-3-methyl-1,4-dihydropyrano[2,3-c]pyrazole-5-carbonitrile], for which, in the data set on SARS-CoV-2, the “SARS-CoV-2 Antiviral Assay (%) inhibition of viral replication” value is 27.84 ± 0.14% and the “Antiviral Potency Index (API)” value is given as 0.30. Besides, in “in vitro”, the midpoint of inhibition, the IC50, lay at 66.5 ± 5.1 µM.
Turning to `CCOc1ccc(C2C(C#N)=C(N)Oc3c2c(C)nn3-c2ccc(Cl)cc2)cc1` (stereo not drawn) [Compound 31, 6-Amino-1-(4-chlorophenyl)-4-(4-ethoxyphenyl)-3-methyl-1,4-dihydropyrano[2,3-c]pyrazole-5-carbonitrile], the values for the IC50 at SARS-CoV-2 M^pro and in “in vitro” were 4.6 ± 0.25 µM and 18.1 ± 1.4 µM, respectively. Further, the “Antiviral Potency Index (API)” value with SARS-CoV-2 is 0.81.
On to `COc1cc(C2C(C#N)=C(N)Oc3c2c(C)nn3-c2ccc(Cl)cc2)ccc1O` (stereo not drawn) [Compound 32, 6-Amino-1-(4-chlorophenyl)-4-(4-hydroxy-3-methoxyphenyl)-3-methyl-1,4-dihydropyrano[2,3-c]pyrazole-5-carbonitrile], for which the IC50 in “in vitro” worked out at 45.7 ± 3.5 µM.
For `COc1cc(C2C(C#N)=C(N)Oc3c2c(C)nn3-c2ccc(Cl)cc2)cc(OC)c1OC` (stereo not drawn) [Compound 33, 6-Amino-1-(4-chlorophenyl)-4-(3,4,5-trimethoxyphenyl)-3-methyl-1,4-dihydropyrano[2,3-c]pyrazole-5-carbonitrile], the IC50 against SARS-CoV-2 M^pro is 22.1 ± 1.1 µM; in the data set “in vitro”, 86.2 ± 6.6 µM. Besides, the “Antiviral Potency Index (API)” value in the data set on SARS-CoV-2 was 0.83.
In data set [1] (Mean t1/2), `CC(C)NCC(O)COc1cccc2ccccc12` (stereo not drawn) [Propranolol, reference compound] gave a half-life of 2.4 h.
Consider `CCC(CC)COC(=O)[C@H](C)N[P@](=O)(OC[C@H]1O[C@@](C#N)(c2ccc3c(N)ncnn23)[C@H](O)[C@@H]1O)Oc1ccccc1` [Remdesivir, reference compound], for which the “Cytotoxicity to Vero E6 cells” value in the data set on Vero E6 cells (at 60 μM) is listed as “no cytotoxicity”. Further, the IC50 in the data set “in vitro” turned out to be 61.8 ± 4.7 µM.
On to `CO[C@H]1/C=C/O[C@@]2(C)Oc3c(C)c(O)c4c(O)c(c(/C=N/N5CCN(C)CC5)c(O)c4c3C2=O)NC(=O)/C(C)=C\C=C\[C@H](C)[C@H](O)[C@@H](C)[C@@H](O)[C@@H](C)[C@H](OC(C)=O)[C@@H]1C` [Rifampicin, reference compound], for which, in the data set “PBS solubility screening”, the Solubility note entry was “Reference with good solubility” and the concentration in solution (solubility) was 179 µM (≈ 148 µg/mL).
